Test results taken from patent publication US9521847B2, “Synergistic weed control from applications of pyridine carboxylic acid herbicides and synthetic auxin herbicides and/or auxin transport inhibitors” (Dow AgroSciences LLC, priority 2014, dated 2016).
Where two headings read alike, the source gives them in different places.

How the values were obtained:
[1] = tested on: rutabaga (Brassica napus var. napobrassica, BRSNA); experiment: Greenhouse postemergence trial, % visual injury; assay type: in vivo; conditions: 400 g ae/ha alone; 20-22 d
[2] = tested on: Chinese kale (Brassica alboglabra, BRSAG); experiment: Greenhouse postemergence trial, % visual injury; assay type: in vivo; conditions: 400 g ae/ha alone; 20-22 d
[3] = tested on: brown mustard (Brassica juncea, BRSJU); experiment: Greenhouse postemergence trial, % visual injury; assay type: in vivo; conditions: 400 g ae/ha alone; 20-22 d
[4] = tested on: ivyleaf morningglory (Ipomoea hederacea, IPOHE); experiment: Greenhouse postemergence trial, % visual injury
[5] = tested on: maize (ZEAMX); experiment: Greenhouse postemergence trial, crop phytotoxicity (% visual injury); conditions: for % visual injury, Obs: ZEAMX
[6] = tested on: winter wheat (TRZAW); experiment: as above; conditions: for % visual injury, Obs: TRZAW; for % visual injury Obs: crop, 20-22 d
[7] = tested on: wild pansy (Viola tricolor, VIOTR); experiment: Greenhouse postemergence trial, % visual injury
[8] = tested on: turnip (Brassica rapa, BRSRR); experiment: Greenhouse postemergence trial, % visual injury; assay type: in vivo
[9] = tested on: wild radish (Raphanus raphanistrum, RAPRA); experiment: Greenhouse postemergence trial, % visual injury; assay type: in vivo
[10] = tested on: black mustard (Brassica nigra, BRSNI); experiment: Greenhouse postemergence trial, % visual injury; assay type: in vivo
[11] = tested on: common rice (ORYSA); experiment: Greenhouse postemergence trial, crop phytotoxicity (% visual injury); conditions: for % visual injury, Obs: ORYSA
[12] = tested on: wild mustard (Sinapis arvensis, SINAR); experiment: Greenhouse postemergence trial, % visual injury; assay type: in vivo
[13] = tested on: Canadian thistle (CIRAR, Cirsium arvense); experiment: Greenhouse postemergence trial, % visual injury; conditions: for % visual injury, Obs: CIRAR;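 as to all read-outs here: plants sprayed at second to third true leaf stage, injury scored visually 20-22 d later against solvent-blank sprayed controls, 0 meaning no injury and 100 complete kill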
[14] = tested on: Indian hedge mustard (Sisymbrium orientale, SSYOR); experiment: Greenhouse postemergence trial, % visual injury; assay type: in vivo
[15] = tested on: grain sorghum (Sorghum vulgare, SORVU); experiment: Greenhouse postemergence trial, % visual injury; assay type: in vivo
[16] = tested on: spring rape (Brassica napus, BRSNN); experiment: Greenhouse postemergence trial, % visual injury
[17] = tested on: poinsettia (Euphorbia heterophylla, EPHHL); experiment: Greenhouse postemergence trial, % visual injury
[18] = tested on: pigweed (AMARE, Amaranthus retroflexus); experiment: Greenhouse postemergence trial, % visual injury; assay type: in vivo
[19] = tested on: common rice (ORYSA); conditions: in vivo
[20] = tested on: spring barley (HORVS); conditions: Hordeum vulgare (spring barley), in vivo
[21] = tested on: winter rape (BRSNW, Brassica napus); experiment: Greenhouse postemergence trial, % visual injury; assay type: in vivo; conditions: 20-22 d
[22] = tested on: large crabgrass (Digitaria sanguinalis, DIGSA); experiment: Greenhouse postemergence trial, % visual injury; assay type: in vivo; conditions: Digitaria sanguinalis, post-emergence, DIGSA, read-out: % visual injury, Obs
[23] = tested on: winter wheat (TRZAW); conditions: in vivo; for % visual injury Obs: Triticum aestivum (winter wheat)
[24] = tested on: common lambsquarters (CHEAL, Chenopodium album L.); experiment: Greenhouse postemergence trial, % visual injury; assay type: in vivo
[25] = tested on: maize (ZEAMX); conditions: maize (Zea mays), in vivo
[26] = tested on: nutsedge (Cyperus esculentus, CYPES); experiment: Greenhouse postemergence trial, % visual injury; assay type: in vivo
[27] = tested on: sunflower (Helianthus annus, HELAN); experiment: Greenhouse postemergence trial, % visual injury; assay type: in vivo; conditions: dichlorprop-P 400 g ae/ha
[28] = tested on: velvetleaf (Abutilon theophrasti, ABUTH); experiment: Greenhouse postemergence trial, % visual injury; assay type: in vivo
[29] = tested on: common chickweed (Stellaria media, STEME); experiment: Greenhouse postemergence trial, % visual injury; assay type: in vivo; conditions: for % visual injury, Obs: STEME
[30] = tested on: spring barley (HORVS); experiment: Greenhouse postemergence trial, crop phytotoxicity (% visual injury); conditions: crop, 20-22 d
[31] = tested on: kochia (KCHSC, Kochia scoparia); experiment: Greenhouse postemergence trial, % visual injury; assay type: in vivo
Protocol: Following the protocol in Example 1, compound 1 and compound 2 were combined with 2,4 D EHE (EC) and applied to kochia (KCHSC, Kochia scoparia) and the phytotoxicity of the herbicidal compositions was measured.
Following the protocol in Example 1, compound 1 (EC) and Compound 2 (SC) were combined with diflufenzopyr and applied to kochia (Kochia scoparia, KCHSC) and the phytotoxicity of the herbicidal composition was measured.

[32] = tested on: barnyardgrass (Echinochloa crus-galli, ECHCG); experiment: Greenhouse postemergence trial, % visual injury; assay type: in vivo; conditions: ECHCG, 280 g ae/ha
[33] = Cirsium arvense, post-emergence, read-out: % visual injury (Obs)
[34] = winter wheat (Triticum aestivum)
[35] = Brassica napus, post-emergence, read-out: % visual injury (Obs)
[36] = Brassica napus, post-emergence, read-out: % visual injury, Obs
[37] = Cirsium arvense, post-emergence, read-out: % visual injury Obs

## O=C(O)COc1ccc(Cl)cc1Cl [2,4-D choline, reference compound]
[1]
  % visual injury Obs: 93%
[2]
  % visual injury Obs: 85%
[3]
  % visual injury Obs: 90%

## COC(=O)c1nc(-c2ccc(Cl)c(OC)c2F)cc(N)c1Cl [Arylex ™]
[4]; Arylex 2.5 g ae/ha
  % visual injury (Obs): 10%
[5]; Arylex 2.5 g ae/ha
  % visual injury (Obs): 0%
[6]; Arylex 2.5 g ae/ha
  % visual injury (Obs): 0%
[7]; Arylex 2.5 g ae/ha
  % visual injury (Obs): 15%
[7]; Arylex 5 g ae/ha
  % visual injury (Obs): 20%
[8]; Arylex 2.5 g ae/ha
  % visual injury (Obs): 10%
[8]; Arylex 5 g ae/ha
  % visual injury (Obs): 13%
[9]; Arylex 2.5 g ae/ha
  % visual injury (Obs): 10%
[9]; Arylex 5 g ae/ha
  % visual injury (Obs): 20%
[10]; Arylex 2.5 g ae/ha
  % visual injury (Obs): 0%
[10]; Arylex 5 g ae/ha
  % visual injury (Obs): 0%
[11]; Arylex 2.5 g ae/ha
  % visual injury (Obs): 0%
[12]; Arylex 2.5 g ae/ha
  % visual injury (Obs): 65%
[12]; Arylex 5 g ae/ha
  % visual injury (Obs): 78%
[13]; Arylex 2.5 g ae/ha
  % visual injury (Obs): 50%
[14]; Arylex 2.5 g ae/ha
  % visual injury (Obs): 57%
[14]; Arylex 5 g ae/ha
  % visual injury (Obs): 63%
[15]; Arylex 2.5 g ae/ha
  % visual injury (Obs): 0%
[16]; Arylex 2.5 g ae/ha
  % visual injury (Obs): 20%

## COc1c(Cl)ccc(Cl)c1C(=O)O [Dicamba-DMA, dicamba-dimethylammonium, reference compound]
[4]; dicamba-DMA 150 g ae/ha
  % visual injury (Obs): 70%
[17]; Euphorbia heterophylla, post-emergence, read-out: % visual injury, Obs, EPHHL, 140 g ae/ha
  pest or weed control at 140 g/ha: 20%
[17]; dicamba-DMA 150 g ae/ha
  % visual injury (Obs): 50%
[18]; Amaranthus retroflexus, post-emergence, 140 g ae/ha alone, 20-22 d, read-out: % visual injury Obs
  pest or weed control at 140 g/ha: 67%
[19]
  % visual injury (Obs): 0%
  % visual injury, Obs: 5%
[20]
  % visual injury Obs: 0%
[7]; dicamba-DMA 150 g ae/ha
  % visual injury (Obs): 20%
[21]; 140 g ae/ha alone
  % visual injury Obs: 40%
[13]; [33]
  pest or weed control at 150 g/ha: 70%
[22]; 140 g ae/ha
  pest or weed control at 140 g/ha: 0%
[23]
  % visual injury Obs: 0%
[23]; [34]
  % visual injury (Obs): 0%
  % visual injury, Obs: 0%
[24]; CHEAL, 140 g ae/ha
  % visual injury, Obs: 85%
[25]
  % visual injury (Obs): 0%
  % visual injury, Obs: 0%
[16]; [35]
  plant injury at 150 g/ha: 40%
[16]; [36]
  plant injury at 140 g/ha: 50%

## CC(Oc1ccc(Cl)cc1Cl)C(=O)O (stereo not shown) [Dichlorprop-P, dichlorprop-P, reference compound]
[26]; dichlorprop-P 400 g ae/ha
  % visual injury (Obs): 0%
[17]; dichlorprop-P 400 g ae/ha
  % visual injury (Obs): 60%
[18]; Amaranthus retroflexus, post-emergence, 280 g ae/ha alone, 20-22 d, read-out: % visual injury Obs
  pest or weed control at 280 g/ha: 40%
[27]
  % visual injury (Obs): 85%
[19]
  % visual injury (Obs): 0%
[20]
  % visual injury Obs: 0%
[28]; dichlorprop-P 400 g ae/ha
  % visual injury (Obs): 60%
[21]; 280 g ae/ha alone
  % visual injury Obs: 83%
[13]; [33]
  pest or weed control at 400 g/ha: 70%
[13]; [37]
  pest or weed control at 280 g/ha: 75%
[23]
  % visual injury Obs: 0%
[23]; [34]
  % visual injury (Obs): 0%
[29]; dichlorprop-P 400 g ae/ha
  % visual injury (Obs): 20%
[16]; [35]
  plant injury at 400 g/ha: 80%

## Cc1cc(Cl)ccc1OC(C)C(=O)O (stereo not shown) [Mecoprop-P, mecoprop-P]
[4]; Ipomoea, post-emergence, read-out: % visual injury, Obs, IPOHE, 400 g ae/ha
  pest or weed control at 400 g/ha: 30%
[5]; 400 g ae/ha
  % visual injury, Obs: 0%
[6]; 400 g ae/ha
  % visual injury, Obs: 0%
[6]; 400 g ae/ha alone
  % visual injury Obs: 0%
[17]; Euphorbia heterophylla, post-emergence, read-out: % visual injury, Obs, EPHHL, 400 g ae/ha
  pest or weed control at 400 g/ha: 30%
[30]; 400 g ae/ha alone
  % visual injury Obs: 0%
[18]; Amaranthus retroflexus, post-emergence, 400 g ae/ha alone, 20-22 d, read-out: % visual injury Obs
  pest or weed control at 400 g/ha: 58%
[28]; Abutilon theophrasti, post-emergence, ABUTH, 400 g ae/ha, read-out: % visual injury, Obs
  pest or weed control at 400 g/ha: 30%
[11]; 400 g ae/ha
  % visual injury, Obs: 0%
[21]; 400 g ae/ha alone
  % visual injury Obs: 88%
[13]; 400 g ae/ha
  % visual injury, Obs: 10%
[31]; Bassia scoparia, post-emergence, KCHSC, 400 g ae/ha, read-out: % visual injury, Obs
  pest or weed control at 400 g/ha: 10%
[29]; 400 g ae/ha
  % visual injury, Obs: 0%
[15]; SORVU, 400 g ae/ha
  % visual injury, Obs: 0%
[16]; [36]
  plant injury at 400 g/ha: 30%

## O=C(O)c1nc(Cl)ccc1Cl [clopyralid]
[4]; Ipomoea, post-emergence, read-out: % visual injury, Obs, IPOHE, 100 g ae/ha
  pest or weed control at 100 g/ha: 35%
[4]; clopyralid 120 g ae/ha
  % visual injury (Obs): 30%
[5]; 100 g ae/ha
  % visual injury, Obs: 0%
[5]; clopyralid 120 g ae/ha
  % visual injury (Obs): 0%
[6]; 100 g ae/ha
  % visual injury, Obs: 0%
[6]; clopyralid 120 g ae/ha
  % visual injury (Obs): 0%
[6]; 100 g ae/ha alone
  % visual injury Obs: 3%
[17]; Euphorbia heterophylla, post-emergence, read-out: % visual injury, Obs, EPHHL, 100 g ae/ha
  pest or weed control at 100 g/ha: 5%
[30]; 100 g ae/ha alone
  % visual injury Obs: 5%
[18]; AMARE, 100 g ae/ha
  % visual injury, Obs: 28%
[18]; Amaranthus retroflexus, post-emergence, 100 g ae/ha alone, 20-22 d, read-out: % visual injury Obs
  pest or weed control at 100 g/ha: 3%
[11]; 100 g ae/ha
  % visual injury, Obs: 0%
[11]; clopyralid 120 g ae/ha
  % visual injury (Obs): 0%
[21]; 100 g ae/ha alone
  % visual injury Obs: 0%
[13]; [37]
  pest or weed control at 100 g/ha: 85%
[22]; 100 g ae/ha
  pest or weed control at 100 g/ha: 0%
[31]; clopyralid 120 g ae/ha
  % visual injury (Obs): 10%
[24]; Chenopodium album, post-emergence, 100 g ae/ha alone, 20-22 d, read-out: % visual injury Obs
  pest or weed control at 100 g/ha: 0%
[24]; clopyralid 120 g ae/ha
  % visual injury (Obs): 10%
[29]; clopyralid 120 g ae/ha
  % visual injury (Obs): 0%
[16]; [36]
  plant injury at 100 g/ha: 43%

## CCCCOCCOC(=O)COc1nc(Cl)c(Cl)cc1Cl [triclopyr-butotyl, reference compound]
[26]; CYPES, 280 g ae/ha
  % visual injury, Obs: 10%
[5]; 280 g ae/ha
  % visual injury, Obs: 10%
[6]; 280 g ae/ha
  % visual injury, Obs: 15%
[32]
  % visual injury, Obs: 0%
[7]; VIOTR, 280 g ae/ha
  % visual injury, Obs: 65%
[28]; Abutilon theophrasti, post-emergence, ABUTH, 280 g ae/ha, read-out: % visual injury, Obs
  pest or weed control at 280 g/ha: 20%
[11]; 280 g ae/ha
  % visual injury, Obs: 0%
[13]; 280 g ae/ha
  % visual injury, Obs: 85%
[22]; 280 g ae/ha
  pest or weed control at 280 g/ha: 0%
[31]; Bassia scoparia, post-emergence, KCHSC, 280 g ae/ha, read-out: % visual injury, Obs
  pest or weed control at 280 g/ha: 50%
[29]; 280 g ae/ha
  % visual injury, Obs: 20%
[16]; [36]
  plant injury at 280 g/ha: 80%
